Results from the supplement of paper PMC4862054.

System: MDA-MB-436
Test: drug sensitivity score (DSS), CellTiter-Glo (DSS (AUC-based score)); higher = stronger drug effect (viability inhibition or cytotoxicity); extreme values may be limits of the assay
Settings: incubation time: 72 h
Method in brief: (§1)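 After 72 h of incubation in 384-well plates with compound at 5 concentrations (10-fold steps, 10,000-fold range set per compound), breast cancer cell lines seeded in 20 µl suspension were read first for CellTox Green fluorescence at 485/520 nm. CellTiter-Glo luminescence was measured next, after 10 min at room temperature. Normalisation on each plate used 0.1 % DMSO and a positive kill control, and the drug sensitivity score was computed from the area under the fitted dose-response curve.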

**Q.** With `COc1cc(Nc2ncc(F)c(Nc3ccc4c(n3)N(COP(=O)(O)O)C(=O)C(C)(C)O4)n2)cc(OC)c1OC` [Fostamatinib] as the compound, how does the drug sensitivity score read?
**A.** The drug sensitivity score was 0.

**Q.** How did the drug sensitivity score turn out when `CC(C)NC[C@@H](C(=O)N1CCN(c2ncnc3c2[C@H](C)C[C@H]3O)CC1)c1ccc(Cl)cc1` [GDC-0068] was run?
**A.** Its drug sensitivity score is 1.1.

**Q.** With `CCCc1cc(C)[nH]c(=O)c1CNC(=O)c1cc(-c2ccnc(N3CCN(C)CC3)c2)cc2c1cnn2C(C)C` [GSK343] as the compound, how does the drug sensitivity score read?
**A.** The drug sensitivity score was 1.6.

**Q.** For `NC(=O)NO` [Hydroxyurea], which drug sensitivity score is on record?
**A.** Its drug sensitivity score is 0.

System: MFM-223
Test: as above
Settings: incubation time: 72 h
Method in brief: as §1

**Q.** How did the drug sensitivity score turn out when `CCCCCOC(=O)Nc1nc(=O)n([C@@H]2O[C@H](C)[C@@H](O)[C@H]2O)cc1F` [Capecitabine] was run?
**A.** The drug sensitivity score was 0.

**Q.** How did the drug sensitivity score turn out when `CC(C)C[C@H](NC(=O)[C@H](CCc1ccccc1)NC(=O)CN1CCOCC1)C(=O)N[C@@H](Cc1ccccc1)C(=O)N[C@@H](CC(C)C)C(=O)[C@@]1(C)CO1` [Carfilzomib] was run?
**A.** Its drug sensitivity score is 28.1.

**Q.** Which drug sensitivity score does the source give for `Nc1nc(Cl)nc2c1ncn2[C@@H]1O[C@H](CO)[C@@H](O)[C@@H]1F` [Clofarabine] here?
**A.** The drug sensitivity score was 0.

**Q.** For `CCN(CC)CCOc1ccc(C(=C(Cl)c2ccccc2)c2ccccc2)cc1` [Clomifene], which drug sensitivity score is on record?
**A.** The drug sensitivity score was 2.2.

**Q.** Which drug sensitivity score does the source give for `C[C@@H]1C[C@H]2[C@@H]3CCC4=CC(=O)C=C[C@]4(C)[C@@]3(F)[C@@H](O)C[C@]2(C)[C@@]1(O)C(=O)CO` [Dexamethasone] here?
**A.** Its drug sensitivity score is 0.

**Q.** With `CCc1cnn2c(NCc3ccc[n+]([O-])c3)cc(N3CCCC[C@H]3CCO)nc12` [Dinaciclib] as the compound, how does the drug sensitivity score read?
**A.** Its drug sensitivity score is 17.8.

**Q.** Which drug sensitivity score does the source give for `Cc1c(C(=O)Nc2ccc(N3C[C@@H](C)O[C@@H](C)C3)nc2)cccc1-c1ccc(OC(F)(F)F)cc1` [Erismodegib] here?
**A.** The drug sensitivity score was 1.41.

**Q.** Which drug sensitivity score does the source give for `CC(C)C(=O)Nc1ccc([N+](=O)[O-])c(C(F)(F)F)c1` [Flutamide] here?
**A.** The drug sensitivity score was 0.

**Q.** Which drug sensitivity score does the source give for `COc1cc2c(Oc3ccc(NC(=O)C4(C(=O)Nc5ccc(F)cc5)CC4)cc3F)ccnc2cc1OCCCN1CCOCC1` [Foretinib] here?
**A.** Its drug sensitivity score is 6.22.

**Q.** For `COc1cc(Nc2ncc(F)c(Nc3ccc4c(n3)N(COP(=O)(O)O)C(=O)C(C)(C)O4)n2)cc(OC)c1OC` [Fostamatinib], which drug sensitivity score is on record?
**A.** Its drug sensitivity score is 7.93.

**Q.** `CC(C)NC[C@@H](C(=O)N1CCN(c2ncnc3c2[C@H](C)C[C@H]3O)CC1)c1ccc(Cl)cc1` [GDC-0068] was tested. Which drug sensitivity score did it give?
**A.** Its drug sensitivity score is 16.6.

**Q.** How did the drug sensitivity score turn out when `CCCc1cc(C)[nH]c(=O)c1CNC(=O)c1cc(-c2ccnc(N3CCN(C)CC3)c2)cc2c1cnn2C(C)C` [GSK343] was run?
**A.** The drug sensitivity score was 2.85.

**Q.** Which drug sensitivity score does the source give for `NC(=O)NO` [Hydroxyurea] here?
**A.** Its drug sensitivity score is 0.

System: MDA-MB-453
Test: as above
Settings: incubation time: 72 h
Method in brief: as §1

**Q.** With `CCCCCOC(=O)Nc1nc(=O)n([C@@H]2O[C@H](C)[C@@H](O)[C@H]2O)cc1F` [Capecitabine] as the compound, how does the drug sensitivity score read?
**A.** The drug sensitivity score was 0.

**Q.** Which drug sensitivity score does the source give for `CC(C)C[C@H](NC(=O)[C@H](CCc1ccccc1)NC(=O)CN1CCOCC1)C(=O)N[C@@H](Cc1ccccc1)C(=O)N[C@@H](CC(C)C)C(=O)[C@@]1(C)CO1` [Carfilzomib] here?
**A.** Its drug sensitivity score is 22.7.

**Q.** For `Nc1nc(Cl)nc2c1ncn2[C@@H]1O[C@H](CO)[C@@H](O)[C@@H]1F` [Clofarabine], which drug sensitivity score is on record?
**A.** The drug sensitivity score was 0.

**Q.** How did the drug sensitivity score turn out when `CCN(CC)CCOc1ccc(C(=C(Cl)c2ccccc2)c2ccccc2)cc1` [Clomifene] was run?
**A.** The drug sensitivity score was 5.37.

**Q.** How did the drug sensitivity score turn out when `C[C@@H]1C[C@H]2[C@@H]3CCC4=CC(=O)C=C[C@]4(C)[C@@]3(F)[C@@H](O)C[C@]2(C)[C@@]1(O)C(=O)CO` [Dexamethasone] was run?
**A.** Its drug sensitivity score is 4.

**Q.** How did the drug sensitivity score turn out when `CCc1cnn2c(NCc3ccc[n+]([O-])c3)cc(N3CCCC[C@H]3CCO)nc12` [Dinaciclib] was run?
**A.** The drug sensitivity score was 16.

**Q.** How did the drug sensitivity score turn out when `Cc1c(C(=O)Nc2ccc(N3C[C@@H](C)O[C@@H](C)C3)nc2)cccc1-c1ccc(OC(F)(F)F)cc1` [Erismodegib] was run?
**A.** The drug sensitivity score was 0.

**Q.** How did the drug sensitivity score turn out when `CC(C)C(=O)Nc1ccc([N+](=O)[O-])c(C(F)(F)F)c1` [Flutamide] was run?
**A.** The drug sensitivity score was 0.

**Q.** With `COc1cc2c(Oc3ccc(NC(=O)C4(C(=O)Nc5ccc(F)cc5)CC4)cc3F)ccnc2cc1OCCCN1CCOCC1` [Foretinib] as the compound, how does the drug sensitivity score read?
**A.** Its drug sensitivity score is 0.

**Q.** How did the drug sensitivity score turn out when `COc1cc(Nc2ncc(F)c(Nc3ccc4c(n3)N(COP(=O)(O)O)C(=O)C(C)(C)O4)n2)cc(OC)c1OC` [Fostamatinib] was run?
**A.** The drug sensitivity score was 0.

**Q.** How did the drug sensitivity score turn out when `CC(C)NC[C@@H](C(=O)N1CCN(c2ncnc3c2[C@H](C)C[C@H]3O)CC1)c1ccc(Cl)cc1` [GDC-0068] was run?
**A.** The drug sensitivity score was 10.4.

**Q.** Which drug sensitivity score does the source give for `CCCc1cc(C)[nH]c(=O)c1CNC(=O)c1cc(-c2ccnc(N3CCN(C)CC3)c2)cc2c1cnn2C(C)C` [GSK343] here?
**A.** Its drug sensitivity score is 6.37.

**Q.** For `NC(=O)NO` [Hydroxyurea], which drug sensitivity score is on record?
**A.** The drug sensitivity score was 0.

System: CAL-51
Test: as above
Settings: incubation time: 72 h
Method in brief: as §1

**Q.** How did the drug sensitivity score turn out when `CCCCCOC(=O)Nc1nc(=O)n([C@@H]2O[C@H](C)[C@@H](O)[C@H]2O)cc1F` [Capecitabine] was run?
**A.** Its drug sensitivity score is 0.

**Q.** `CC(C)C[C@H](NC(=O)[C@H](CCc1ccccc1)NC(=O)CN1CCOCC1)C(=O)N[C@@H](Cc1ccccc1)C(=O)N[C@@H](CC(C)C)C(=O)[C@@]1(C)CO1` [Carfilzomib] was tested. Which drug sensitivity score did it give?
**A.** The drug sensitivity score was 22.1.

**Q.** Which drug sensitivity score does the source give for `Nc1nc(Cl)nc2c1ncn2[C@@H]1O[C@H](CO)[C@@H](O)[C@@H]1F` [Clofarabine] here?
**A.** The drug sensitivity score was 17.6.

**Q.** `CCN(CC)CCOc1ccc(C(=C(Cl)c2ccccc2)c2ccccc2)cc1` [Clomifene] was tested. Which drug sensitivity score did it give?
**A.** The drug sensitivity score was 0.

**Q.** `C[C@@H]1C[C@H]2[C@@H]3CCC4=CC(=O)C=C[C@]4(C)[C@@]3(F)[C@@H](O)C[C@]2(C)[C@@]1(O)C(=O)CO` [Dexamethasone] was tested. Which drug sensitivity score did it give?
**A.** The drug sensitivity score was 0.

**Q.** `CCc1cnn2c(NCc3ccc[n+]([O-])c3)cc(N3CCCC[C@H]3CCO)nc12` [Dinaciclib] was tested. Which drug sensitivity score did it give?
**A.** The drug sensitivity score was 20.6.

**Q.** With `Cc1c(C(=O)Nc2ccc(N3C[C@@H](C)O[C@@H](C)C3)nc2)cccc1-c1ccc(OC(F)(F)F)cc1` [Erismodegib] as the compound, how does the drug sensitivity score read?
**A.** The drug sensitivity score was 4.99.

**Q.** Which drug sensitivity score does the source give for `CC(C)C(=O)Nc1ccc([N+](=O)[O-])c(C(F)(F)F)c1` [Flutamide] here?
**A.** Its drug sensitivity score is 0.0535.

**Q.** `COc1cc2c(Oc3ccc(NC(=O)C4(C(=O)Nc5ccc(F)cc5)CC4)cc3F)ccnc2cc1OCCCN1CCOCC1` [Foretinib] was tested. Which drug sensitivity score did it give?
**A.** Its drug sensitivity score is 1.01.

**Q.** For `COc1cc(Nc2ncc(F)c(Nc3ccc4c(n3)N(COP(=O)(O)O)C(=O)C(C)(C)O4)n2)cc(OC)c1OC` [Fostamatinib], which drug sensitivity score is on record?
**A.** The drug sensitivity score was 0.

**Q.** With `CC(C)NC[C@@H](C(=O)N1CCN(c2ncnc3c2[C@H](C)C[C@H]3O)CC1)c1ccc(Cl)cc1` [GDC-0068] as the compound, how does the drug sensitivity score read?
**A.** Its drug sensitivity score is 8.39.

**Q.** `CCCc1cc(C)[nH]c(=O)c1CNC(=O)c1cc(-c2ccnc(N3CCN(C)CC3)c2)cc2c1cnn2C(C)C` [GSK343] was tested. Which drug sensitivity score did it give?
**A.** The drug sensitivity score was 0.

**Q.** How did the drug sensitivity score turn out when `NC(=O)NO` [Hydroxyurea] was run?
**A.** Its drug sensitivity score is 16.2.

System: CAL-120
Test: as above
Settings: incubation time: 72 h
Method in brief: as §1

**Q.** With `CCCCCOC(=O)Nc1nc(=O)n([C@@H]2O[C@H](C)[C@@H](O)[C@H]2O)cc1F` [Capecitabine] as the compound, how does the drug sensitivity score read?
**A.** The drug sensitivity score was 0.

**Q.** How did the drug sensitivity score turn out when `CC(C)C[C@H](NC(=O)[C@H](CCc1ccccc1)NC(=O)CN1CCOCC1)C(=O)N[C@@H](Cc1ccccc1)C(=O)N[C@@H](CC(C)C)C(=O)[C@@]1(C)CO1` [Carfilzomib] was run?
**A.** The drug sensitivity score was 19.

**Q.** `Nc1nc(Cl)nc2c1ncn2[C@@H]1O[C@H](CO)[C@@H](O)[C@@H]1F` [Clofarabine] was tested. Which drug sensitivity score did it give?
**A.** Its drug sensitivity score is 4.58.

**Q.** With `CCN(CC)CCOc1ccc(C(=C(Cl)c2ccccc2)c2ccccc2)cc1` [Clomifene] as the compound, how does the drug sensitivity score read?
**A.** Its drug sensitivity score is 0.

**Q.** `C[C@@H]1C[C@H]2[C@@H]3CCC4=CC(=O)C=C[C@]4(C)[C@@]3(F)[C@@H](O)C[C@]2(C)[C@@]1(O)C(=O)CO` [Dexamethasone] was tested. Which drug sensitivity score did it give?
**A.** The drug sensitivity score was 10.1.

**Q.** How did the drug sensitivity score turn out when `CCc1cnn2c(NCc3ccc[n+]([O-])c3)cc(N3CCCC[C@H]3CCO)nc12` [Dinaciclib] was run?
**A.** Its drug sensitivity score is 13.6.
